Among the data in paper PMC8016666, “A novel combination therapy targeting ubiquitin-specific protease 5 in MYCN-driven neuroblastoma” (Oncogene, 2021) are Kd values, retold here.

This assay has as its target T1, USP5 (Homo sapiens, UniProt P45974).
T1 construct: full-length
T1 sequence (P45974 2-858): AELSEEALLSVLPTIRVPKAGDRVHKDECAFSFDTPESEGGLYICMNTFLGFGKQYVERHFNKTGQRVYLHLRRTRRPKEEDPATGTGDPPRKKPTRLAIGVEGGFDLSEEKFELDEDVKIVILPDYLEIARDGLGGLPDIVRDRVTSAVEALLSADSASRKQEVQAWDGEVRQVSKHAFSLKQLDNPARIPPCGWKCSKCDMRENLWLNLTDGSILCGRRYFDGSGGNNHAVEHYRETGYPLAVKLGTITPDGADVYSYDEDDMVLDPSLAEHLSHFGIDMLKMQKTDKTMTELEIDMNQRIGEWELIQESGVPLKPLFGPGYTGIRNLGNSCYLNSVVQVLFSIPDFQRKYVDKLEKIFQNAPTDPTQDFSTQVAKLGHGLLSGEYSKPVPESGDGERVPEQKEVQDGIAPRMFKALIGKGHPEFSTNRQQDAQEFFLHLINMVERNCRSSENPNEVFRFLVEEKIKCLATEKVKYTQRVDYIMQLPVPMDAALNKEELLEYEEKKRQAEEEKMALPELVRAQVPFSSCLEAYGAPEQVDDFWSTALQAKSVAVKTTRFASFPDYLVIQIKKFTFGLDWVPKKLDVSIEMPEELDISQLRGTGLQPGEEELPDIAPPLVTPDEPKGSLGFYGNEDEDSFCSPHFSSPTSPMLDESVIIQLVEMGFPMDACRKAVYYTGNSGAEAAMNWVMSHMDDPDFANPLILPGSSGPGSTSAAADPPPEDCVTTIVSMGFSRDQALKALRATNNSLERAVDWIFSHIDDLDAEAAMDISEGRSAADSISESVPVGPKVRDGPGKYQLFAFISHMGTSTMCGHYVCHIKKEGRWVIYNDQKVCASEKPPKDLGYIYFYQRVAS
The assay can be described thus: microscale thermophoresis with purified labelled USP5. The format is binding. (MST reads how a fluorescent partner responds to local heating, with and without ligand.)

Structures are written as SMILES. pKd: −log10 of the molar value.

For `O=C(CCCCCCC(=O)Nc1ccccc1)NO` [SAHA], the negative logarithm of the Kd (pKd) (commonly the Kd on a negative log10 scale, so that one unit is a factor of ten) is 5.56.
